Among the data in PubChem BioAssay (NCI) are TGI values, retold here.

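Five compound concentrations were applied to cells in 96-well plates for 48 hours; endpoints were derived by simple linear interpolation of the resulting dose-response curve. TGI: concentration producing complete growth inhibition.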 Bounds are passed on as bounds.

Among the test systems are 786-0 renal; A498 renal; HCC-2998 colon; HCT-15 colon; KM12 colon; OVCAR-5 ovarian; RPMI-8226 leukemia; SF-295 CNS; SK-MEL-28 melanoma; SN12C renal; SNB-19 CNS; SW-620 colon; UO-31 renal; COLO 205 colon; LOX IMVI melanoma; SK-OV-3 ovarian; UACC-62 melanoma; DU-145 prostate.
Experiment in all cases: NCI anticancer screen, dose series, 48 h

On to `COc1cc2ccnc(C#N)c2cc1OCc1ccccc1`, for which the TGI in the test on 786-0 renal, in the test on A498 renal, with HCC-2998 colon, in the test on HCT-15 colon, in the test on KM12 colon and with OVCAR-5 ovarian was more than 100 µM each time. Further, the TGI with RPMI-8226 leukemia, in the test on SF-295 CNS, with SK-MEL-28 melanoma, in the test on SN12C renal, in the test on SNB-19 CNS and in the test on SW-620 colon was more than 100 µM throughout. This compound also yielded a TGI in the test with UO-31 renal of more than 100 µM.

With `O=C(O)C12C3CCC(C3)C1(C(=O)O)C1CCC2C1` (stereo unspecified), the TGI in the test with 786-0 renal, in the test with A498 renal, in the test with COLO 205 colon, in the test with HCC-2998 colon, with HCT-15 colon and in the test with KM12 colon was more than 100 µM throughout. Besides, the TGI was 58.1 µM in the test with LOX IMVI melanoma; more than 100 µM in the test on OVCAR-5 ovarian; 48.4 µM in the test on RPMI-8226 leukemia; more than 100 µM in the test on SF-295 CNS; more than 100 µM in the test with SK-MEL-28 melanoma; more than 100 µM in the test with SK-OV-3 ovarian. Besides, the TGI in the test with SN12C renal is more than 100 µM; in the test with SNB-19 CNS it was more than 100 µM; with SW-620 colon, 34.2 µM; in the test with UACC-62 melanoma, more than 100 µM; with UO-31 renal, more than 100 µM.

On to `CN1C(=O)C(=Cc2ccc(Br)cc2)C(=O)N(C)C1=O`, for which the TGI in the test with 786-0 renal, with A498 renal, in the test with COLO 205 colon, in the test on DU-145 prostate, in the test with HCC-2998 colon and with HCT-15 colon was more than 100 µM throughout. For the same compound, the TGI in the test on KM12 colon, with LOX IMVI melanoma, in the test with OVCAR-5 ovarian, with RPMI-8226 leukemia, with SF-295 CNS and with SK-MEL-28 melanoma was more than 100 µM each time. In addition, the TGI with SK-OV-3 ovarian, with SNB-19 CNS, in the test on SW-620 colon, in the test on UACC-62 melanoma and in the test on UO-31 renal was more than 100 µM throughout.

As to `N#CCCC(C#N)(C#N)CCC#N`, the TGI in the test with 786-0 renal, with COLO 205 colon, in the test with HCC-2998 colon, in the test with HCT-15 colon, in the test with KM12 colon and in the test with LOX IMVI melanoma was more than 100 µM throughout. In addition, the TGI in the test with RPMI-8226 leukemia, in the test with SF-295 CNS, in the test with SK-MEL-28 melanoma, in the test on SK-OV-3 ovarian, with SN12C renal and in the test on SNB-19 CNS was more than 100 µM throughout. For the same compound, the TGI with SW-620 colon, with UACC-62 melanoma and with UO-31 renal was more than 100 µM each time.

For `CN1CCCS/C1=C1/SC(=S)N(c2ccccc2)C1=O`, the TGI in the test on 786-0 renal, with A498 renal, in the test on COLO 205 colon, in the test with HCT-15 colon, in the test on KM12 colon and in the test with LOX IMVI melanoma was more than 100 µM throughout. Further, the TGI in the test on OVCAR-5 ovarian, in the test with RPMI-8226 leukemia, with SF-295 CNS, with SK-MEL-28 melanoma, with SK-OV-3 ovarian and in the test on SN12C renal was more than 100 µM each time. Further, the TGI with SNB-19 CNS, with SW-620 colon, with UACC-62 melanoma and with UO-31 renal was more than 100 µM throughout.

Turning to `O=c1[nH]c(=O)n([C@H]2C[C@@H](CO)[C@@H](O)C2)cc1I`, the TGI in the test on 786-0 renal, with A498 renal, in the test with COLO 205 colon, in the test with HCC-2998 colon, in the test with HCT-15 colon and with KM12 colon was more than 100 µM in each case. Also, the TGI in the test with LOX IMVI melanoma, with OVCAR-5 ovarian, with RPMI-8226 leukemia, in the test on SK-MEL-28 melanoma, with SK-OV-3 ovarian and with SN12C renal was more than 100 µM in each case. Also, the TGI with SNB-19 CNS, in the test with SW-620 colon, in the test on UACC-62 melanoma and with UO-31 renal was more than 100 µM throughout.

For the compound `COc1ccc(S(=O)(=O)N/N=C(\C)CN2C(=O)c3ccccc3C2=O)cc1OC`, the TGI in the test with 786-0 renal, in the test with A498 renal, with COLO 205 colon, in the test on HCC-2998 colon, in the test on HCT-15 colon and with KM12 colon was more than 100 µM throughout. The TGI in the test on OVCAR-5 ovarian, in the test with RPMI-8226 leukemia, in the test with SF-295 CNS, in the test with SK-MEL-28 melanoma, with SK-OV-3 ovarian and in the test with SN12C renal was more than 100 µM each time. Further, the TGI in the test on SNB-19 CNS, with SW-620 colon, with UACC-62 melanoma and with UO-31 renal was more than 100 µM each time.

For the compound `N#Cc1ccc(C2OCC3CC=CCC3CO2)cc1` (stereo unspecified), the TGI in the test on 786-0 renal, with COLO 205 colon, in the test with HCC-2998 colon, with HCT-15 colon, in the test on KM12 colon and in the test with LOX IMVI melanoma was more than 100 µM in each case. Besides, the TGI with OVCAR-5 ovarian, with RPMI-8226 leukemia, in the test on SF-295 CNS, in the test with SK-MEL-28 melanoma, in the test with SK-OV-3 ovarian and in the test with SN12C renal was more than 100 µM in each case. For the same compound, the TGI in the test with SNB-19 CNS, in the test on SW-620 colon, in the test with UACC-62 melanoma and in the test on UO-31 renal was more than 100 µM throughout.

Take `O=C1C(Cl)C(c2ccc(O)cc2)N1n1cnc2ccccc2c1=O` (stereo unspecified): the TGI was more than 100 µM in the test with 786-0 renal; more than 100 µM with A498 renal; 58.4 µM with COLO 205 colon; more than 100 µM in the test with HCC-2998 colon; more than 100 µM with HCT-15 colon; more than 100 µM in the test on KM12 colon. Moreover, the TGI was 45.3 µM in the test on LOX IMVI melanoma; more than 100 µM in the test with OVCAR-5 ovarian; 57.7 µM with RPMI-8226 leukemia; more than 100 µM with SF-295 CNS; 70.2 µM in the test with SK-MEL-28 melanoma; more than 100 µM in the test on SK-OV-3 ovarian. For the same compound, the TGI in the test on SN12C renal is more than 100 µM; in the test on SNB-19 CNS it was more than 100 µM; in the test with SW-620 colon, 47.8 µM; with UACC-62 melanoma it was 48.4 µM; with UO-31 renal, more than 100 µM.

As to `O=C1CCC(=O)c2ccccc2N1`, the TGI with 786-0 renal, in the test with A498 renal, in the test on COLO 205 colon, with HCC-2998 colon, in the test on HCT-15 colon and in the test with KM12 colon was more than 100 µM each time. Further, the TGI in the test with LOX IMVI melanoma, in the test with OVCAR-5 ovarian, with RPMI-8226 leukemia, in the test on SF-295 CNS, in the test with SK-MEL-28 melanoma and with SK-OV-3 ovarian was more than 100 µM throughout. For the same compound, the TGI with SN12C renal, in the test on SNB-19 CNS, in the test with SW-620 colon and in the test on UO-31 renal was more than 100 µM each time.

Turning to `c1cc2c(cc1C1OCC3C(c4ccc5c(c4)OCO5)OCC13)OCO2` (stereo unspecified), the TGI with 786-0 renal, in the test on A498 renal, in the test with COLO 205 colon, in the test with HCC-2998 colon, in the test with HCT-15 colon and in the test on KM12 colon was more than 100 µM throughout. The TGI in the test with LOX IMVI melanoma, with OVCAR-5 ovarian, with SF-295 CNS, in the test on SK-MEL-28 melanoma, in the test on SK-OV-3 ovarian and with SN12C renal was more than 100 µM throughout. Also, the TGI in the test with SNB-19 CNS, in the test with SW-620 colon, in the test on UACC-62 melanoma and with UO-31 renal was more than 100 µM throughout.

With `Cc1ccc(S(=O)(=O)c2ccc(C)cc2[N+](=O)[O-])c([N+](=O)[O-])c1`, the TGI with 786-0 renal, in the test with COLO 205 colon, with HCC-2998 colon, in the test with HCT-15 colon, with KM12 colon and with LOX IMVI melanoma was more than 100 µM each time. Also, the TGI in the test with OVCAR-5 ovarian, in the test on RPMI-8226 leukemia, with SF-295 CNS, with SK-MEL-28 melanoma, in the test on SN12C renal and in the test with SNB-19 CNS was more than 100 µM throughout. For the same compound, the TGI in the test with SW-620 colon, in the test with UACC-62 melanoma and with UO-31 renal was more than 100 µM in each case.

For the compound `CN(C)CC1(Cc2ccccc2)CC/C(=C\c2ccccc2)C1=O` (stereo unspecified), the TGI was more than 100 µM in the test on 786-0 renal; more than 100 µM in the test with A498 renal; 89.6 µM in the test on COLO 205 colon; 40.7 µM in the test on HCC-2998 colon; 42.1 µM with HCT-15 colon; more than 100 µM in the test on KM12 colon. The TGI in the test on LOX IMVI melanoma was 74.9 µM; with OVCAR-5 ovarian, more than 100 µM; in the test on RPMI-8226 leukemia it was 55.7 µM; in the test with SF-295 CNS, more than 100 µM; in the test with SK-MEL-28 melanoma, more than 100 µM; with SN12C renal it was more than 100 µM. In addition, the TGI with SNB-19 CNS was 63.3 µM; in the test on SW-620 colon, 60.3 µM; with UACC-62 melanoma, more than 100 µM; in the test with UO-31 renal, more than 100 µM.

On to `Cc1c(-c2coc(-c3ccc([N+](=O)[O-])cc3)n2)c(=O)n(-c2ccccc2)n1C`, for which the TGI with 786-0 renal, with A498 renal, in the test on COLO 205 colon, with HCC-2998 colon, with HCT-15 colon and in the test on KM12 colon was more than 100 µM each time. The TGI in the test with LOX IMVI melanoma, in the test on OVCAR-5 ovarian, in the test with RPMI-8226 leukemia, in the test with SF-295 CNS, in the test with SK-MEL-28 melanoma and in the test with SK-OV-3 ovarian was more than 100 µM each time. The TGI in the test with SN12C renal, with UACC-62 melanoma and with UO-31 renal was more than 100 µM throughout.
